Measurements: patent US20100297159A1, “THOMSEN-FRIEDENREICH DISACCHARIDE MODIFIED IMMUNOGEN (TFD), PREPARATION PROCEDURE, COMPOSITIONS COMPRISING IT, USES, AND TREATMENT METHODS” (CONSEJO NACIONAL DE INVESTIGACIONES CIETIFICAS Y TECNICAS …, priority 2007, published 2010)
Read-outs that look alike come from different tables or passages of the source. One block for each compound: values may come before it.

What was measured:
[1] = system: HT29 tumor cell / antibody interaction; assay: Competition ELISA of cells, inhibition of antibody interaction with HT29 tumor cells; type: cell-based, human; settings: for Inhibitory effect relative to BzlαTFD, IgM mediated interaction: times less inhibitory effect than BzlαTFD; for Inhibitory effect, IgM mediated interaction: in words
Protocol: Level of antibodies against epithelial tumor cells was determined using lines HT29, MCF7, and T47D. Tumor cells were cultured to sub-comfluence in media recommended by ATCC, and harvested by treatment with trypsin. They were adsorbed to multi-well plates, fixed with cold methanol for […] and saturated with PBS-T for 1 hour at room temperature. ELISA of cells was carried out by incubating serial dilutions of mouse sera against the different tumor lines for 2 hours at room temperature in PBS, and then was washed 4 times with PBS-T. The adhered antigen-antibody complex was detected with a 1/1000 dilution of anti-IgG goat antibody or mouse IgM conjugated to a peroxidase in PBS-T, incubated for 1 hour at room temperature, and washed […] PBS-T. Color reaction was developed as described for ELA. Steps for competition ELISA of cells were the same as for ELISA of cells, except in that the optimum anti-sera dilution was pre-incubated with several antigens related to carbohydrates for 1 hour at room temperature prior to the addition to the plate wells.

[2] = system: TFD-BSA antigen / IgG, IgM antibodies interaction; assay: Competition ELISA, inhibition of antibody interaction with TFD-BSA antigen; type: binding, mice; settings: for IC50: antisera from BzlαTFD-Lys5-KLHs immunization; for Inhibitory effect in the interaction of TFD-BSA/antigen T-IgG/IgM antibodies: competition ELISA, TFD-BSA and antigen T, in words
Protocol: (§1) Target antigens (10 μg/ml) were adhered to multi-well plates of polystirene in saline phosphate buffer (PBS; 10 mM sodium phosphate, pH 7.2 and 150 mM NaCl) overnight at 4° C. Glycolipids were diluted in methanol and dried for 1 hour at 60° C. After covering the wells with the antigens, these were saturated with PBS-1% BSA-0.05% Tween 20 for 1 hour at 37° C. Serial dilutions of antiserum were incubates with the antigen for 2 hours at room temperature, and then washed 5 times with PBS. The adhered antigen-antibody complex was detected with a 1/1000 dilution of anti-IgG goat antibody or mouse IgM conjugated with peroxydase in PBS-0.05% Tween 20 (PBS-T), incubates at room temperature for 1 hour, and washed 5 times with PBS. Color reaction was developed as described for ELA.
(§2) The three antibodies showing highest anti-TFD and anti-antigen T levels were analyzed by competition ELISA, and results were averaged. Optimum antiserum dilutions with an optical density of 1.0 against TFD-BSA and T-MUC1 (10 μg/ml) as blanc antigen were determined in preliminary experiments. Competition ELISA stages were equal to those in ELISA, except in that optimal antiserum dilution was pre-incubated with several related antigens in carbohydrates for 1 hour at room temperature before being added to the wells. Minimum concentration of carbohydrates required for 50% inhibition (ID50) of antigen-antibody interaction is a more specific parameter.

[3] = system: T-MUC1 antigen / IgG, IgM antibodies interaction; assay: Competition ELISA, inhibition of antibody interaction with T-MUC1 antigen; type: binding, mice; settings: antisera from BzlαTFD-Lys5-KLHs immunization
Protocol: as §1, §2

[4] = Homo sapiens, HT-29, HT29, IgG, read-out: Concentration requested to produce 50% inhibition (IC50), antibodies with HT29 tumor cell interaction, IgG
[5] = Homo sapiens, HT-29, HT29, IgM, read-out: Concentration requested to produce 50% inhibition (IC50), antibodies with HT29 tumor cell interaction, IgM
[6] = IgG, read-out: Concentration required to produce 50% inhibition (IC50), TFD-BSA antigen, IgG
[7] = IgM, read-out: Concentration required to produce 50% inhibition (IC50), TFD-BSA antigen, IgM
[8] = IgG, read-out: Concentration required to produce 50% inhibition (IC50), T-MUC1 antigen, IgG
[9] = IgM, read-out: Concentration required to produce 50% inhibition (IC50), T-MUC1 antigen, IgM
[10] = HT29, IgM, read-out: Concentration requested to produce 50% inhibition (IC50), antibodies with HT29 tumor cell interaction, IgM
[11] = HT29, IgG, read-out: Concentration requested to produce 50% inhibition (IC50), antibodies with HT29 tumor cell interaction, IgG

SMILES: OCC1OC(O)C(O)C(O)C1O (centres unmarked) [Gal]
- Inhibitory effect, IgM mediated interaction ([1]; HT29): did not show inhibitory effect

SMILES: CC(=O)NC1C(O)OC(CO)C(O)C1O (centres unmarked) [GlcNAc]
- IC50 [1, 11]: > 100 mM
- IC50 [1, 10]: > 100 mM
- Inhibitory effect, IgM mediated interaction ([1]; HT29): did not show inhibitory effect
- IC50 [2, 6]: > 100 mM
- IC50 [2, 7]: > 100 mM
- Inhibitory effect in the interaction of TFD-BSA/antigen T-IgG/IgM antibodies [2]: did not show any effect
- IC50 [3, 8]: > 100 mM
- IC50 [3, 9]: > 100 mM

SMILES: OCC1OC(O)C(O)C(O)C1O (centres unmarked) [Glc]
- IC50 [1, 4]: > 100 mM
- IC50 [1, 5]: > 100 mM
- IC50 [2, 6]: > 100 mM
- IC50 [2, 7]: > 100 mM
- Inhibitory effect in the interaction of TFD-BSA/antigen T-IgG/IgM antibodies [2]: did not show any effect
- IC50 [3, 8]: > 100 mM
- IC50 [3, 9]: > 100 mM

SMILES: CC(=O)N[C@H]1[C@@H](Oc2ccc([N+](=O)[O-])cc2)O[C@H](CO)[C@H](O)[C@@H]1O[C@@H]1O[C@H](CO)[C@H](O)[C@H](O)[C@H]1O [pNPαTFD]
- IC50 [1, 11]: > 10 mM
- IC50 [1, 10]: 2 mM
- Inhibitory effect, IgM mediated interaction ([1]; HT29): greatest inhibitors

The remaining compounds from weak to strong by IC50 [2, 6], led by results:

- IC50 [1, 10]: 20 mM
- IC50 [1, 4]: > 100 mM
- IC50 [2, 6]: 20 mM
- IC50 [2, 7]: 30 mM
- IC50 [3, 8]: > 100 mM
- IC50 [3, 9]: > 100 mM
SMILES: CC(=O)NC1C(O)OC(CO)C(O)C1O (centres unmarked) [GalNAc]
- Inhibitory effect relative to BzlαTFD, IgM mediated interaction ([1]; HT29): 10 times

- IC50 [1, 11]: > 10 mM
- IC50 [1, 10]: 8 mM
- IC50 [2, 6]: 10 mM
- IC50 [2, 7]: 3.5 mM
- IC50 [3, 8]: 20 mM
- IC50 [3, 9]: > 20 mM
SMILES: CC(=O)N[C@@H]1[C@@H](O[C@@H]2O[C@H](CO)[C@H](O)[C@H](O)[C@H]2O)[C@@H](O)[C@@H](CO)O[C@@H]1O [TFD, Galβ3GalNAcα]
- Inhibitory effect relative to BzlαTFD, IgM mediated interaction ([1]; HT29): 4 times
- Inhibitory effect in the interaction of TFD-BSA/antigen T-IgG/IgM antibodies [2]: significant inhibition

- IC50 [1, 4]: 8 mM
- IC50 [1, 5]: 8 mM
- IC50 [2, 6]: 5 mM
- IC50 [2, 7]: 1 mM
- IC50 [3, 8]: 20 mM
- IC50 [3, 9]: > 20 mM
SMILES: CC(=O)NC1C(OCc2ccccc2)OC(CO)C(O)C1O (centres unmarked) [BzlαGalNAc]
- Inhibitory effect relative to BzlαTFD, IgM mediated interaction ([1]; HT29): 4 times
- Inhibitory effect in the interaction of TFD-BSA/antigen T-IgG/IgM antibodies [2]: significant inhibition

- IC50 [1, 4]: 4 mM
- IC50 [1, 5]: 2 mM
- IC50 [2, 6]: 2.5 mM
- IC50 [2, 7]: 0.1 mM
- IC50 [3, 8]: 10 mM
- IC50 [3, 9]: > 10 mM
SMILES: CC(=O)NC1C(OCc2ccccc2)OC(CO)C(O)C1OC1OC(CO)C(O)C(O)C1O (centres unmarked) [BzlαTFD]
- Inhibitory effect, IgM mediated interaction ([1]; HT29): greatest inhibitors
- Inhibitory effect in the interaction of TFD-BSA/antigen T-IgG/IgM antibodies [2]: significant inhibition
